Measurements from US20230081064A1, “FORMULATIONS FOR DELIVERY TO THE EAR” (Spiral Therapeutics Inc., priority 2021, published 2023).
≈ marks a conversion by molar mass, not a printed value.

Experiment: Solubility of the active agent in water
Type: physicochemical

solubility: ~2.4 µM (≈ 1.51 µg/mL)
Structure (SMILES): COc1ccc2[nH]cc(CCNC(=O)CC3C(=O)N(CCc4ccc(Cl)cc4Cl)CC(=O)N3CCc3cccs3)c2c1 (stereo not shown) [LPT99, 2-(4-(2,4-Dichlorophenethyl)-3,6-dioxo-1-(2-(thiophen-2-yl)ethyl)piperazin-2-yl)-N-(2-(5-methoxy-1H-indol-3-yl)ethyl)acetamide]
